In one assay the target is PKR R510Q (Homo sapiens, UniProt P30613, R510Q). In words: PKR Mutant Assay, AC50 against PKR R510Q. In kind it is biochemical. The following applies: mutant PKR R510Q enzyme. In short, it runs like this:
(§1)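 LDH-coupled NADH depletion read as A340 change at room temperature after ADP (0.22-1.65 mM) start. Compounds, tested from 100 μM final in 3-fold steps over 11 points with 1% DMSO, sat 60 min with enzyme (80-400 ng/well), PEP 0.1-0.5 mM and NADH 180 uM in Tris pH 7.5/KCl/MgCl2/DTT/BSA buffer.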

The next assay has as its target PKR R532W (Homo sapiens, UniProt P30613, R532W). As to the kind of experiment: PKR Mutant Assay, AC50 against PKR R532W. The assay is classed as biochemical. Particulars: mutant PKR R532W enzyme. In short, it runs like this:
as §1

In assay [1] the target is T1, PKR WT (Homo sapiens, UniProt P30613). As to the kind of experiment: PKR WT enzymatic AC50 assay. In kind it is biochemical. Particulars: wild type PKR. In short, it runs like this: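 PK-LDH coupled assay, RT. Enzyme + cpd + PEP/NADH/LDH, 60 min pre-incubation, no ADP. ADP 0.22-1.65 mM to initiate; A340 kinetic read. Cpd 11 pts, 3-fold, 100 μM top.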
T1 sequence (P30613 whole entry): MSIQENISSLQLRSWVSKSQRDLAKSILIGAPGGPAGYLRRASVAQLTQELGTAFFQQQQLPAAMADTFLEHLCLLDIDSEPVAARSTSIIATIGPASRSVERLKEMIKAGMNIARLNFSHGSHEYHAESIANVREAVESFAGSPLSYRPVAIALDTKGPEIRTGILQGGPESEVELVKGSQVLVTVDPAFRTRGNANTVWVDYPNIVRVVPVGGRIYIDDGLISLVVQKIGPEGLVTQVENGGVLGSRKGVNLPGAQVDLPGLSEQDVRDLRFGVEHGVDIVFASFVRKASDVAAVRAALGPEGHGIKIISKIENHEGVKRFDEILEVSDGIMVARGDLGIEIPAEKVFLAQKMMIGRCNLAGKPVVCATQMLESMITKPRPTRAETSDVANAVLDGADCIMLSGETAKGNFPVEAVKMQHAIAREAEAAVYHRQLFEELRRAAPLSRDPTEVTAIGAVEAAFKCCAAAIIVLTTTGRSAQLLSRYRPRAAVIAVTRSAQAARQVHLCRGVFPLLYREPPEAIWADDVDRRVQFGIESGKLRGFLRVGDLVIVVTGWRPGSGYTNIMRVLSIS
For assay [2], the target named is T1, PKR WT. As to the kind of experiment: PKR WT cell based AC50 assay. The following applies: wild type PKR.

Chain of PKR R510Q (P30613 whole entry R510Q): as the sequence (P30613 whole entry) above, with R510Q counted along it
Chain of PKR R532W (P30613 whole entry R532W): as the sequence (P30613 whole entry) above, with R532W counted along it

Take `Nc1c(O)cccc1S(=O)(=O)Nc1ccc(C(=O)N2CCC(O)(c3ccccc3Cl)CC2)cc1` [Compound 382, 2-amino-N-(4-(4-(2-chlorophenyl)-4-hydroxypiperidine-1-carbonyl)phenyl)-3-hydroxybenzenesulfonamide]: the AC50 – broadly, the concentration giving half of the maximal activity seen – was 101 to 1000 nM at PKR R510Q, 101 to 1000 nM on PKR R532W, less than 100 nM at PKR WT [1] and less than 100 nM at PKR WT [2].

On to `Cc1nc2c(S(=O)(=O)Nc3ccc(C(=O)N4CCC(O)(c5ccccc5Cl)CC4)cc3)cccc2o1` [Compound 383, N-(4-(4-(2-chlorophenyl)-4-hydroxypiperidine-1-carbonyl)phenyl)-2-methylbenzo[d]oxazole-4-sulfonamide], for which the AC50 at PKR R510Q was 101 to 1000 nM; on PKR R532W it was less than 100 nM; on PKR WT [1] it was less than 100 nM; at PKR WT [2] it was less than 100 nM.

For the molecule `CNc1nc2c(S(=O)(=O)Nc3ccc(C(=O)N4CCC(O)(CC(C)C)CC4)cc3)cc(Cl)cc2s1` [Compound 385, 6-chloro-N-(4-(4-hydroxy-4-isobutylpiperidine-1-carbonyl)phenyl)-2-(methylamino)benzo[d]thiazole-4-sulfonamide], the AC50 on PKR R510Q, on PKR R532W, on PKR WT [1] and at PKR WT [2] was less than 100 nM each time.

For the molecule `CC(F)(F)CCC1(O)CCN(C(=O)c2ccc(NS(=O)(=O)c3cccc4scnc34)cc2)CC1` [Compound 387, N-(4-(4-(3,3-difluorobutyl)-4-hydroxypiperidine-1-carbonyl)phenyl)benzo[d]thiazole-4-sulfonamide], the AC50 on PKR R510Q was 101 to 1000 nM; at PKR R532W, less than 100 nM; at PKR WT [1] it was less than 100 nM; on PKR WT [2] it was 101 to 1000 nM.

`CC(C)CC1(O)CCN(C(=O)c2ccc(NS(=O)(=O)c3cccc4c(O)ncnc34)cc2)CC1` [Compound 388, 4-hydroxy-N-(4-(4-hydroxy-4-isobutylpiperidine-1-carbonyl)phenyl)quinazoline-8-sulfonamide]: the AC50 at PKR R510Q, at PKR R532W, at PKR WT [1] and at PKR WT [2] was less than 100 nM in each case.

For `O=C(c1ccc(NS(=O)(=O)c2cccc3scnc23)cc1)N1CCC(O)(CCCC(F)F)CC1` [Compound 389, N-(4-(4-(4,4-difluorobutyl)-4-hydroxypiperidine-1-carbonyl)phenyl)benzo[d]thiazole-4-sulfonamide], the AC50 on PKR R510Q, on PKR R532W, on PKR WT [1] and on PKR WT [2] was less than 100 nM each time.

For `C=C(CC1(O)CCN(C(=O)c2ccc(NS(=O)(=O)c3cccc4scnc34)cc2)CC1)C(F)(F)F` [Compound 390, N-(4-(4-hydroxy-4-(2-(trifluoromethyl)allyl)piperidine-1-carbonyl)phenyl)benzo[d]thiazole-4-sulfonamide], the AC50 on PKR R510Q, on PKR R532W, at PKR WT [1] and on PKR WT [2] was less than 100 nM throughout.

As for `CC(CC1(O)CCN(C(=O)c2ccc(NS(=O)(=O)c3cccc4scnc34)cc2)CC1)C(F)(F)F` (centres unmarked) [Compound 391], the AC50 at PKR R510Q, at PKR R532W, at PKR WT [1] and at PKR WT [2] was less than 100 nM in each case.

In the case of `CC(C)CCC1(O)CCN(C(=O)c2ccc(NS(=O)(=O)c3cccc4scnc34)cc2)CC1` [Compound 392, N-(4-(4-hydroxy-4-isopentylpiperidine-1-carbonyl)phenyl)benzo[d]thiazole-4-sulfonamide], the AC50 at PKR R510Q, on PKR R532W, on PKR WT [1] and on PKR WT [2] was less than 100 nM in each case.

`O=C(c1ccc(NS(=O)(=O)c2cccc3scnc23)cc1)N1CCC(O)(CCC=C(F)F)CC1` [Compound 393, N-(4-(4-(4,4-difluorobut-3-en-1-yl)-4-hydroxypiperidine-1-carbonyl)phenyl)benzo[d]thiazole-4-sulfonamide]: the AC50 is 101 to 1000 nM at PKR R510Q, less than 100 nM at PKR R532W, less than 100 nM on PKR WT [1] and less than 100 nM on PKR WT [2].

Regarding `O=C(c1ccc(NS(=O)(=O)c2cccc3scnc23)cc1)N1CCC(O)(CCCC(F)(F)F)CC1` [Compound 394, N-(4-(4-hydroxy-4-(4,4,4-trifluorobutyl)piperidine-1-carbonyl)phenyl)benzo[d]thiazole-4-sulfonamide], the AC50 is 101 to 1000 nM at PKR R510Q, less than 100 nM on PKR R532W, less than 100 nM on PKR WT [1] and less than 100 nM at PKR WT [2].

As for `O=C(c1ccc(NS(=O)(=O)c2cccc3scnc23)cc1)N1CCC(O)(CCC(F)=C(F)F)CC1` [Compound 395, N-(4-(4-hydroxy-4-(3,4,4-trifluorobut-3-enyl)piperidine-1-carbonyl)phenyl)benzo[d]thiazole-4-sulfonamide], the AC50 at PKR R510Q was 101 to 1000 nM; at PKR R532W, less than 100 nM; at PKR WT [1], less than 100 nM; on PKR WT [2], 101 to 1000 nM.

`CC(F)(F)CCC1(O)CCN(C(=O)c2ccc(NS(=O)(=O)c3cccc4nccnc34)cc2)CC1` [Compound 396, N-(4-(4-(3,3-difluorobutyl)-4-hydroxypiperidine-1-carbonyl)phenyl)quinoxaline-5-sulfonamide]: the AC50 on PKR R510Q was 101 to 1000 nM; at PKR R532W it was 101 to 1000 nM; at PKR WT [1] it was less than 100 nM; at PKR WT [2], less than 100 nM.

Turning to `O=C(c1ccc(NS(=O)(=O)c2cccc3nccnc23)cc1)N1CCC(O)(CCCC(F)(F)F)CC1` [Compound 397, N-(4-(4-hydroxy-4-(4,4,4-trifluorobutyl)piperidine-1-carbonyl)phenyl)quinoxaline-5-sulfonamide], the AC50 at PKR R510Q, at PKR R532W, at PKR WT [1] and at PKR WT [2] was less than 100 nM throughout.

Regarding `O=C(c1ccc(NS(=O)(=O)c2cccc3nccnc23)cc1)N1CCC(O)(CCC(F)=C(F)F)CC1` [Compound 398, N-(4-(4-hydroxy-4-(3,4,4-trifluorobut-3-enyl)piperidine-1-carbonyl)phenyl)quinoxaline-5-sulfonamide], the AC50 on PKR R510Q was 101 to 1000 nM; at PKR R532W it was less than 100 nM; at PKR WT [1], less than 100 nM; at PKR WT [2] it was less than 100 nM.

Consider `O=C(c1ccc(NS(=O)(=O)c2cccc3nccnc23)cc1)N1CCC(O)(CCC=C(F)F)CC1` [Compound 399, N-(4-(4-(4,4-difluorobut-3-en-1-yl)-4-hydroxypiperidine-1-carbonyl)phenyl)quinoxaline-5-sulfonamide], for which the AC50 at PKR R510Q, on PKR R532W, at PKR WT [1] and at PKR WT [2] was less than 100 nM each time.

`O=C(c1ccc(NS(=O)(=O)c2cccc3nccnc23)cc1)N1CCC(O)(CCCC(F)F)CC1` [Compound 400, N-(4-(4-(4,4-difluorobutyl)-4-hydroxypiperidine-1-carbonyl)phenyl)quinoxaline-5-sulfonamide]: the AC50 was 101 to 1000 nM on PKR R510Q, less than 100 nM at PKR R532W, less than 100 nM on PKR WT [1] and less than 100 nM at PKR WT [2].

For `O=C(c1ccc(NS(=O)(=O)c2cc(F)cc3scnc23)cc1)N1CCC(O)(c2ccccc2Cl)CC1` [Compound 401, N-(4-(4-(2-chlorophenyl)-4-hydroxypiperidine-1-carbonyl)phenyl)-6-fluorobenzo[d]thiazole-4-sulfonamide], the half-maximal activity concentration (AC50) is 101 to 1000 nM on PKR R510Q, less than 100 nM at PKR R532W, less than 100 nM on PKR WT [1] and 101 to 1000 nM on PKR WT [2].

Turning to `CC(C)CC1(O)CCN(C(=O)c2ccc(NS(=O)(=O)c3cccc4ccc(N)nc34)cc2)CC1` [Compound 402, 2-amino-N-(4-(4-hydroxy-4-isobutylpiperidine-1-carbonyl)phenyl)quinoline-8-sulfonamide], the AC50 at PKR R510Q, at PKR R532W, on PKR WT [1] and at PKR WT [2] was less than 100 nM each time.

In the case of `CC(C)(F)CC1(O)CCN(C(=O)c2ccc(NS(=O)(=O)c3cccc4scnc34)cc2)CC1` [Compound 403, N-(4-(4-(2-fluoro-2-methylpropyl)-4-hydroxypiperidine-1-carbonyl)phenyl)benzo[d]thiazole-4-sulfonamide], the AC50 at PKR R510Q is 101 to 1000 nM; at PKR R532W it was less than 100 nM; at PKR WT [1], 101 to 1000 nM; at PKR WT [2], less than 100 nM.

For `O=C(c1ccc(NS(=O)(=O)c2cccc3scnc23)cc1)N1CCC(O)(/C=C/CC(F)(F)F)CC1` [Compound 404, (E)-N-(4-(4-hydroxy-4-(4,4,4-trifluorobut-1-enyl)piperidine-1-carbonyl)phenyl)benzo[d]thiazole-4-sulfonamide], the AC50 is less than 100 nM at PKR R510Q, less than 100 nM at PKR R532W, less than 100 nM on PKR WT [1] and 101 to 1000 nM at PKR WT [2].

With `CC(CC1(O)CCN(C(=O)c2ccc(NS(=O)(=O)c3cccc4scnc34)cc2)CC1)C(F)F` (centres unmarked) [Compound 405, N-(4-(4-(3,3-difluoro-2-methylpropyl)-4-hydroxypiperidine-1-carbonyl)phenyl)benzo[d]thiazole-4-sulfonamide], the AC50 at PKR R510Q, on PKR R532W, at PKR WT [1] and at PKR WT [2] was 101 to 1000 nM throughout.

`CC(C)CC1(O)CCN(C(=O)c2ccc(NS(=O)(=O)c3cccc4sc(N)nc34)cc2)CC1` [Compound 406, 2-amino-N-(4-(4-hydroxy-4-isobutylpiperidine-1-carbonyl)phenyl)benzo[d]thiazole-4-sulfonamide]: the AC50 on PKR R510Q, at PKR R532W, at PKR WT [1] and at PKR WT [2] was less than 100 nM in each case.
